Data from the supplement of paper PMC10307832.

Legend:
Test in all cases: relative viability (nuclei count vs DMSO), 5 days (fraction); higher = more cells survive
PC-3 [JPC-3] = test system: PC-3 [JPC-3]
How it was run: (§1)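 The day after seeding in 1536-well plates, lung cancer cell lines were treated by pin tool with a single drug, or with a fixed anchor-drug dose together with five library-drug doses (not always all listed) in √10 steps. After 5 days, a combined fix-and-stain solution (final 0.05% Triton X-100, 1% formaldehyde, 1 ug/ml Hoechst) was added. Nuclei counted on 4× images gave relative viability as treated counts over vehicle counts, reported as the median of duplicate plates.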

NCI-H1993 = test system: NCI-H1993
How it was run: as §1

NCI-H1793 = test system: NCI-H1793
How it was run: as §1

COR-L23 = test system: COR-L23
How it was run: as §1

NCI-H2170 = test system: NCI-H2170
How it was run: as §1

NCI-H2228 = test system: NCI-H2228
How it was run: as §1

NCI-H1792 = test system: NCI-H1792
How it was run: as §1

SW 1573 = test system: SW 1573
How it was run: as §1

NCI-H2009 = test system: NCI-H2009
How it was run: as §1

NCI-H596 = test system: NCI-H596
How it was run: as §1

HARA = test system: HARA
How it was run: as §1

SW 900 = test system: SW 900
How it was run: as §1

EMC-BAC-2 = test system: EMC-BAC-2
How it was run: as §1

HOP-62 = test system: HOP-62
How it was run: as §1

SK-MES-1 = test system: SK-MES-1
How it was run: as §1

SK-LU-1 = test system: SK-LU-1
How it was run: as §1

LK-2 = test system: LK-2
How it was run: as §1

NCI-H1944 = test system: NCI-H1944
How it was run: as §1

NCI-H727 = test system: NCI-H727
How it was run: as §1

NCI-H3122 = test system: NCI-H3122
How it was run: as §1

LXF-289 = test system: LXF-289
How it was run: as §1

A-427 = test system: A-427
How it was run: as §1

Question: How did the relative viability (PC-3 [JPC-3]; first compound 0.01 µM) turn out when `NC(=O)Nc1cc(-c2cccc(F)c2)sc1C(=O)N[C@H]1CCCNC1` [AZD7762] + CC(=O)Nc1cccc(-n2c(=O)n(C3CC3)c(=O)c3c(Nc4ccc(I)cc4F)n(C)c(=O)c(C)c32)c1 [Trametinib] (partner 0.02 µM) was run?
Answer: 0.699

Question: And the relative viability (PC-3 [JPC-3]; first compound 0.03162 µM)?
Answer: 0.722

Question: What about the relative viability (PC-3 [JPC-3]; first compound 0.1 µM) of the same compound?
Answer: 0.69

Question: And the relative viability (PC-3 [JPC-3]; first compound 0.3162 µM)?
Answer: 0.662

Question: What about the relative viability (PC-3 [JPC-3]; first compound 1 µM) of the same compound?
Answer: 0.515

Question: And the relative viability (NCI-H1993; first compound 0.01 µM)?
Answer: 0.458

Question: And the relative viability (NCI-H1993; first compound 0.03162 µM)?
Answer: 0.482

Question: What about the relative viability (NCI-H1993; first compound 0.1 µM) of the same compound?
Answer: 0.605

Question: And the relative viability (NCI-H1993; first compound 0.3162 µM)?
Answer: 0.674

Question: What about the relative viability (NCI-H1993; first compound 1 µM) of the same compound?
Answer: 0.536

Question: And the relative viability (NCI-H1793; first compound 0.01 µM)?
Answer: 0.469

Question: And the relative viability (NCI-H1793; first compound 0.03162 µM)?
Answer: 0.485

Question: And the relative viability (NCI-H1793; first compound 0.1 µM)?
Answer: 0.456

Question: And the relative viability (NCI-H1793; first compound 0.3162 µM)?
Answer: 0.446

Question: What about the relative viability (NCI-H1793; first compound 1 µM) of the same compound?
Answer: 0.381

Question: What about the relative viability (COR-L23; first compound 0.01 µM) of the same compound?
Answer: 0.702

Question: And the relative viability (COR-L23; first compound 0.03162 µM)?
Answer: 0.623

Question: And the relative viability (COR-L23; first compound 0.1 µM)?
Answer: 0.518

Question: What about the relative viability (COR-L23; first compound 0.3162 µM) of the same compound?
Answer: 0.319

Question: And the relative viability (COR-L23; first compound 1 µM)?
Answer: 0.119

Question: What about the relative viability (NCI-H2170; first compound 0.01 µM) of the same compound?
Answer: 0.935

Question: And the relative viability (NCI-H2170; first compound 0.03162 µM)?
Answer: 0.939

Question: And the relative viability (NCI-H2170; first compound 0.1 µM)?
Answer: 0.945

Question: What about the relative viability (NCI-H2170; first compound 0.3162 µM) of the same compound?
Answer: 0.951

Question: What about the relative viability (NCI-H2170; first compound 1 µM) of the same compound?
Answer: 0.914

Question: What about the relative viability (NCI-H2228; first compound 0.01 µM) of the same compound?
Answer: 0.483

Question: What about the relative viability (NCI-H2228; first compound 0.03162 µM) of the same compound?
Answer: 0.668

Question: What about the relative viability (NCI-H2228; first compound 0.1 µM) of the same compound?
Answer: 0.461

Question: What about the relative viability (NCI-H2228; first compound 0.3162 µM) of the same compound?
Answer: 0.37

Question: What about the relative viability (NCI-H2228; first compound 1 µM) of the same compound?
Answer: 0.187

Question: What about the relative viability (NCI-H1792; first compound 0.01 µM) of the same compound?
Answer: 0.406

Question: And the relative viability (NCI-H1792; first compound 0.03162 µM)?
Answer: 0.355

Question: What about the relative viability (NCI-H1792; first compound 0.1 µM) of the same compound?
Answer: 0.589

Question: And the relative viability (NCI-H1792; first compound 0.3162 µM)?
Answer: 0.411

Question: And the relative viability (NCI-H1792; first compound 1 µM)?
Answer: 0.527

Question: And the relative viability (SW 1573; first compound 0.01 µM)?
Answer: 0.741

Question: And the relative viability (SW 1573; first compound 0.03162 µM)?
Answer: 0.502

Question: What about the relative viability (SW 1573; first compound 0.1 µM) of the same compound?
Answer: 0.584

Question: What about the relative viability (SW 1573; first compound 0.3162 µM) of the same compound?
Answer: 0.583

Question: What about the relative viability (SW 1573; first compound 1 µM) of the same compound?
Answer: 0.342

Question: And the relative viability (NCI-H2009; first compound 0.01 µM)?
Answer: 0.279

Question: What about the relative viability (NCI-H2009; first compound 0.03162 µM) of the same compound?
Answer: 0.35

Question: And the relative viability (NCI-H2009; first compound 0.1 µM)?
Answer: 0.207

Question: And the relative viability (NCI-H2009; first compound 0.3162 µM)?
Answer: 0.295

Question: What about the relative viability (NCI-H2009; first compound 1 µM) of the same compound?
Answer: 0.236

Question: What about the relative viability (NCI-H596; first compound 0.01 µM) of the same compound?
Answer: 0.931

Question: What about the relative viability (NCI-H596; first compound 0.03162 µM) of the same compound?
Answer: 0.8

Question: What about the relative viability (NCI-H596; first compound 0.1 µM) of the same compound?
Answer: 0.923

Question: And the relative viability (NCI-H596; first compound 0.3162 µM)?
Answer: 0.803

Question: And the relative viability (NCI-H596; first compound 1 µM)?
Answer: 0.626

Question: And the relative viability (HARA; first compound 0.01 µM)?
Answer: 0.686

Question: What about the relative viability (HARA; first compound 0.03162 µM) of the same compound?
Answer: 0.629

Question: And the relative viability (HARA; first compound 0.1 µM)?
Answer: 0.868

Question: And the relative viability (HARA; first compound 0.3162 µM)?
Answer: 0.664

Question: And the relative viability (HARA; first compound 1 µM)?
Answer: 0.295

Question: And the relative viability (SW 900; first compound 0.01 µM)?
Answer: 0.799

Question: And the relative viability (SW 900; first compound 0.03162 µM)?
Answer: 0.794

Question: What about the relative viability (SW 900; first compound 0.1 µM) of the same compound?
Answer: 0.721

Question: And the relative viability (SW 900; first compound 0.3162 µM)?
Answer: 0.862

Question: What about the relative viability (SW 900; first compound 1 µM) of the same compound?
Answer: 0.495

Question: What about the relative viability (EMC-BAC-2; first compound 0.01 µM) of the same compound?
Answer: 1.02

Question: What about the relative viability (EMC-BAC-2; first compound 0.03162 µM) of the same compound?
Answer: 0.84

Question: And the relative viability (EMC-BAC-2; first compound 0.1 µM)?
Answer: 0.921

Question: And the relative viability (EMC-BAC-2; first compound 0.3162 µM)?
Answer: 0.973

Question: What about the relative viability (EMC-BAC-2; first compound 1 µM) of the same compound?
Answer: 0.839

Question: And the relative viability (HOP-62; first compound 0.01 µM)?
Answer: 0.363

Question: And the relative viability (HOP-62; first compound 0.03162 µM)?
Answer: 0.367

Question: What about the relative viability (HOP-62; first compound 0.1 µM) of the same compound?
Answer: 0.407

Question: What about the relative viability (HOP-62; first compound 0.3162 µM) of the same compound?
Answer: 0.37

Question: What about the relative viability (HOP-62; first compound 1 µM) of the same compound?
Answer: 0.343

Question: And the relative viability (SK-MES-1; first compound 0.01 µM)?
Answer: 0.543

Question: What about the relative viability (SK-MES-1; first compound 0.03162 µM) of the same compound?
Answer: 0.535

Question: What about the relative viability (SK-MES-1; first compound 0.1 µM) of the same compound?
Answer: 0.559

Question: What about the relative viability (SK-MES-1; first compound 0.3162 µM) of the same compound?
Answer: 0.347

Question: And the relative viability (SK-MES-1; first compound 1 µM)?
Answer: 0.227

Question: What about the relative viability (SK-LU-1; first compound 0.01 µM) of the same compound?
Answer: 0.553

Question: And the relative viability (SK-LU-1; first compound 0.03162 µM)?
Answer: 0.609

Question: And the relative viability (SK-LU-1; first compound 0.1 µM)?
Answer: 0.393

Question: And the relative viability (SK-LU-1; first compound 0.3162 µM)?
Answer: 0.188

Question: And the relative viability (SK-LU-1; first compound 1 µM)?
Answer: 0.24

Question: And the relative viability (LK-2; first compound 0.01 µM)?
Answer: 0.794

Question: And the relative viability (LK-2; first compound 0.03162 µM)?
Answer: 0.552

Question: What about the relative viability (LK-2; first compound 0.1 µM) of the same compound?
Answer: 0.845

Question: What about the relative viability (LK-2; first compound 0.3162 µM) of the same compound?
Answer: 0.617

Question: And the relative viability (LK-2; first compound 1 µM)?
Answer: 0.562

Question: And the relative viability (NCI-H1944; first compound 0.01 µM)?
Answer: 0.443

Question: And the relative viability (NCI-H1944; first compound 0.03162 µM)?
Answer: 0.493

Question: And the relative viability (NCI-H1944; first compound 0.1 µM)?
Answer: 0.473

Question: And the relative viability (NCI-H1944; first compound 0.3162 µM)?
Answer: 0.523

Question: What about the relative viability (NCI-H1944; first compound 1 µM) of the same compound?
Answer: 0.496

Question: And the relative viability (NCI-H727; first compound 0.01 µM)?
Answer: 0.361

Question: What about the relative viability (NCI-H727; first compound 0.03162 µM) of the same compound?
Answer: 0.429

Question: What about the relative viability (NCI-H727; first compound 0.1 µM) of the same compound?
Answer: 0.358

Question: What about the relative viability (NCI-H727; first compound 0.3162 µM) of the same compound?
Answer: 0.366

Question: And the relative viability (NCI-H727; first compound 1 µM)?
Answer: 0.299

Question: And the relative viability (NCI-H3122; first compound 0.01 µM)?
Answer: 0.22

Question: And the relative viability (NCI-H3122; first compound 0.03162 µM)?
Answer: 0.231

Question: And the relative viability (NCI-H3122; first compound 0.1 µM)?
Answer: 0.223

Question: And the relative viability (NCI-H3122; first compound 0.3162 µM)?
Answer: 0.243

Question: And the relative viability (NCI-H3122; first compound 1 µM)?
Answer: 0.27

Question: And the relative viability (LXF-289; first compound 0.01 µM)?
Answer: 0.618

Question: And the relative viability (LXF-289; first compound 0.03162 µM)?
Answer: 0.699

Question: What about the relative viability (LXF-289; first compound 0.1 µM) of the same compound?
Answer: 0.692

Question: What about the relative viability (LXF-289; first compound 0.3162 µM) of the same compound?
Answer: 0.458

Question: What about the relative viability (LXF-289; first compound 1 µM) of the same compound?
Answer: 0.68

Question: What about the relative viability (A-427; first compound 0.01 µM) of the same compound?
Answer: 0.82

Question: And the relative viability (A-427; first compound 0.03162 µM)?
Answer: 0.849

Question: What about the relative viability (A-427; first compound 0.1 µM) of the same compound?
Answer: 0.772

Question: And the relative viability (A-427; first compound 0.3162 µM)?
Answer: 0.655

Question: What about the relative viability (A-427; first compound 1 µM) of the same compound?
Answer: 0.331
